Read-outs that look alike come from different tables or passages of the source. Each block holds one compound with its values, some of them ahead of it.
What was measured:
[1] = target: LPA1 receptor; settings: 2017, cited from earlier work
[2] = test system: CHO wild-type cells; experiment: Calcium mobilization assay in CHO wild-type cells (control); assay type: cell-based; settings: micromolar concentration
Method: Cells were seeded at a density of 50,000 cells/well in 100 μL into black, clear-bottom 96-well plates. The following day, cells were incubated with medium supplemented with 2.5 mM probenecid, 3 μM of the calcium-sensitive fluorescent dye Fluo-4 AM, and 0.01% pluronic acid for 30 min at 37°C. After the incubation period, the loading solution was aspirated, and 100 μL of HBSS supplemented with 20 mM HEPES, 2.5 mM probenecid, and 500 μM Brilliant Black was added. Serial dilutions of compounds were carried out in HBSS/HEPES (20 mM) buffer containing 0.01% BSA. Cell culture and drug plates were placed into a fluorimetric imaging plate reader (FlexStation II, Molecular Devices, Sunnyvale, CA), and fluorescence changes were measured. Online additions were carried out with a volume of 50 μL/well. […] To facilitate drug diffusion into the wells, the experiments were performed at 37°C, and three cycles of mixing (25 μL from each well moved up and down three times) were performed immediately after injection of antagonists into the wells. Agonist effects were expressed in the form of maximum percentage change over baseline fluorescence. Baseline fluorescence was measured in wells treated with vehicle.

[3] = target: T1, human LPA1 receptor (Homo sapiens, UniProt Q92633); experiment: Dynamic mass redistribution (DMR) assay in CHOLPA1 cells
T1 sequence (Q92633 whole entry): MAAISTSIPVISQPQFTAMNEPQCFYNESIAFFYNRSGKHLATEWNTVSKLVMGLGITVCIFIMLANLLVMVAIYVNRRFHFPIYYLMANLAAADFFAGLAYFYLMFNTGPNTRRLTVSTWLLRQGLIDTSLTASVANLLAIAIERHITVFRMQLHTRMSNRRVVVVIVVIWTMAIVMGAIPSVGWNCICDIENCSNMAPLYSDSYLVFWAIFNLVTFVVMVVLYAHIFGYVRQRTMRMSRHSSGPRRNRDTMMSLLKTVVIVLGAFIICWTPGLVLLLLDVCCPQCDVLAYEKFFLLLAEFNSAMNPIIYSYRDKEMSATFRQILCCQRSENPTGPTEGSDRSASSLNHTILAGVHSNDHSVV
Method: (§1) All data were analyzed using GraphPad Prism 9.4 (La Jolla, CA, United States). Concentration–response curves were fitted using the four-parameter log-logistic equation. Data are expressed in the form mean ± s.e.m. across n experiments performed in duplicate. Agonist potency is expressed in the form pEC50, which is the negative logarithm to base 10 of the agonist molar concentration that produces 50% of the maximal possible effect of that agonist. […] In practice, equiactive concentrations of the agonist in the absence ([A]) and presence ([A’]) of a non-competitive antagonist ([B]) were compared in a double reciprocal plot describing a straight line, and pKB was derived from the equation: pKB = log[(slope—1)/[B]]. […] Maximal effect data were analyzed using the Student’s t-test or a one-way ANOVA followed by Dunnett’s post-hoc test.

[4] = target: T1, human LPA1 receptor; experiment: Calcium mobilization assay in CHOLPA1 cells
Method: as §1

[5] = test system: CHO wild-type cells; experiment: DMR assay in CHO wild-type cells (control); assay type: cell-based
Method: Confluent cells were sub-cultured using trypsin/EDTA and used for experiments. Cells were seeded at a density of 20,000 cells/well in 30 µL into fibronectin-coated EnspireTM-LC 384-well plates and cultured for 20 h to form a confluent monolayer. On the day of the experiment, the cells were manually washed twice and maintained with assay buffer (HBSS with 20 mM HEPES, 0.01% BSA) for 90 min before DMR experiments. DMR was monitored in real time with a temporal resolution of 44 s throughout the assay. Experiments were performed at 37°C using an EnSight Multimode Plate Reader (PerkinElmer). The agonism protocol was as follows: before addition of the ligand, the DMR signal was measured for 5 min, and the average of the signals recorded during this period was set as the baseline (pm = 0). Compounds are added manually in a volume of 10 µL, and the triggered DMR signals were recorded for 60 min. The antagonism protocol was as follows: antagonists were added manually 25 min before reading the 5 min baseline. […] Responses were described in the form of picometer shift over time (seconds) following the subtraction of values from vehicle-treated wells. Maximum picometer (pm) modification (peak) and area under the curve (AUC) were used to determine the agonist response.

[6] = test system: human lung fibroblast proliferation; set-up: method as in Qian et al., 2012; settings: inhibiting LPA-induced human lung fibroblast proliferation; ref Qian et al., 2012; cited from earlier work
[7] = target: T2, human LPA2 receptor (Homo sapiens, UniProt Q9HBW0); experiment: Dynamic mass redistribution (DMR) assay in CHOLPA2 cells
T2 sequence (Q9HBW0 whole entry): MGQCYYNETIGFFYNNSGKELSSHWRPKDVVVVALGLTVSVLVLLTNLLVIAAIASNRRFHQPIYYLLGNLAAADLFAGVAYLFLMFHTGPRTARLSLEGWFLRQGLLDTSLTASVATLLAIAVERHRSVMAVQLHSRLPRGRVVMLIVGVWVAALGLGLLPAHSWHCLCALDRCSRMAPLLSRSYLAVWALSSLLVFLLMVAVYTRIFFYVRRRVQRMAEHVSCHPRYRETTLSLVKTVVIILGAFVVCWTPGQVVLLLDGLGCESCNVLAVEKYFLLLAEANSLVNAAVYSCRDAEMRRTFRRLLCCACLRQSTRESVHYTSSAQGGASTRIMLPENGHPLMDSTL
Method: Confluent cells were sub-cultured using trypsin/EDTA and used for experiments. Cells were seeded at a density of 20,000 cells/well in 30 µL into fibronectin-coated EnspireTM-LC 384-well plates and cultured for 20 h to form a confluent monolayer. On the day of the experiment, the cells were manually washed twice and maintained with assay buffer (HBSS with 20 mM HEPES, 0.01% BSA) for 90 min before DMR experiments. DMR was monitored in real time with a temporal resolution of 44 s throughout the assay. Experiments were performed at 37°C using an EnSight Multimode Plate Reader (PerkinElmer). The agonism protocol was as follows: before addition of the ligand, the DMR signal was measured for 5 min, and the average of the signals recorded during this period was set as the baseline (pm = 0). Compounds are added manually in a volume of 10 µL, and the triggered DMR signals were recorded for 60 min. […] Responses were described in the form of picometer shift over time (seconds) following the subtraction of values from vehicle-treated wells. Maximum picometer (pm) modification (peak) and area under the curve (AUC) were used to determine the agonist response.
All data were analyzed using GraphPad Prism 9.4 (La Jolla, CA, United States). Concentration–response curves were fitted using the four-parameter log-logistic equation. Data are expressed in the form mean ± s.e.m. across n experiments performed in duplicate. […] In practice, equiactive concentrations of the agonist in the absence ([A]) and presence ([A’]) of a non-competitive antagonist ([B]) were compared in a double reciprocal plot describing a straight line, and pKB was derived from the equation: pKB = log[(slope—1)/[B]]. […] Maximal effect data were analyzed using the Student’s t-test or a one-way ANOVA followed by Dunnett’s post-hoc test.

[8] = target: T2, human LPA2 receptor; experiment: Calcium mobilization assay in CHOLPA2 cells; settings: CHOLPA2, calcium mobilization
[9] = set-up: method as in Allanore et al., 2018; settings: phase II, diffuse cutaneous systemic sclerosis; ref Allanore et al., 2018; cited from earlier work
[10] = CHOLPA2, DMR, negative DMR signal, peak, up to 10 µM (compound 35 up to 1 µM), °inactive at 10 μM
[11] = CHOLPA1, calcium mobilization, *inactive at 0.1 µM

pEC50 (stimulant effect of LPA) ([3]; CHOLPA1, DMR, peak, LPA 0.01 nM–10 µM): 7.16 (6.89–7.43)
pEC50 (stimulant effect of LPA) ([4]; CHOLPA1, calcium mobilization, LPA 0.01 nM–10 µM): 7.25 (7.19–7.31)
SMILES: CCCCCCCC/C=C\CCCCCCCC(=O)OC[C@@H](O)COP(=O)([O-])O.[Na+] [LPA, Oleoyl-L-α-lysophosphatidic acid sodium salt]
pEC50 ([1]; native LPA1 receptor, ref Sattikar et al.): ~7.5
pEC50 ([1]; recombinant LPA1 receptor, ref Swaney et al., 2011, Shimizu and Nakayama): ~7.5
Effect in CHO wild-type cells [2]: elicited some stimulant effects
Effect in CHO wild-type cells ([5]; DMR, micromolar concentration): elicited some stimulant effects

Agonism Emax [7, 10]: Inactive°
Agonism pEC50 [7, 10]: Inactive°
DMR response ([7]; CHOLPA2 cells, compound 10 μM, mean ± s.e.m.): 3 ± 21 pm
Effect per se ([8]; 1 µM, data not shown): did not produce any effect per se
Agonism Emax ([8]; #inactive at 1 μM): Inactive^#
Agonism pEC50 ([8]; #inactive at 1 μM): Inactive^#
EC50 ([3]; Agonism pEC50, CHOLPA1, DMR, negative DMR signal (inverse agonism), peak, up to 10 µM (compound 35 up to 1 µM), °inactive at 10 μM): 49 nM
Agonism Emax ([3]; CHOLPA1, DMR, negative DMR signal, peak, up to 10 µM (compound 35 up to 1 µM), °inactive at 10 μM): −80 ± 16 pm
Effect on LPA maximal effect ([3]; CHOLPA1, DMR, tested as antagonist, 1 µM): without changing the maximal effect
DMR response ([3]; CHOLPA1 cells, compound 10 μM, mean ± s.e.m.): −66 ± 16 pm
Kb ([4]; Antagonism pKB (pKB/pA2), CHOLPA1, calcium mobilization, Gaddum method, LPA curve in absence and presence of 0.1 µM antagonist): 2.04 nM
Effect per se ([4]; CHOLPA1, calcium mobilization, 1 µM, data not shown): did not produce any effect per se
Agonism Emax [4, 11]: Inactive*
Agonism pEC50 [4, 11]: Inactive*
LPA1 selectivity (vs. LPA2) ([4]; assay not specified): > 30 fold
SMILES: Cc1nnn(-c2ccc(-c3ccc(C4(C(=O)O)CC4)cc3)cc2)c1NC(=O)O[C@H](C)c1ccccc1 [RO 6842262]
Potency relative to KI 16425 [6]: 10 fold
DMR effect per se ([7]; CHOLPA2, DMR, concentration–response up to highest concentration tested): inactive per se, or slightly active only at the higher concentration tested
Shift of the concentration–response curve to LPA ([3]; CHOLPA1, DMR, antagonism protocol, 1 µM): shifted the concentration–response curve to LPA to the right
Shift of the concentration–response curve to LPA ([4]; CHOLPA1, calcium mobilization, antagonism protocol (compound 35, compound 20 at 1 µM)): shifted the concentration–response curve to LPA to the right
Effect on LPA maximal effect ([4]; CHOLPA1, calcium mobilization, tested as antagonist): reduced the LPA maximal effect in a concentration-dependent manner
DMR response ([5]; CHO cells, compound 10 μM, mean ± s.e.m.): −36 ± 12 pm

SMILES: COc1ccc(C(=O)NC2(C(=O)O)Cc3ccccc3C2)cc1OCCc1cccc(C)c1 [SAR-100842]
Improvement in the modified Rodnan skin thickness score [9]: not statistically significant
Tolerability [9]: well-tolerated
